Some test systems named below: OVCAR-4; UACC-62; HOP-62; SF-539; NCI-H23; SR; HCC 2998; SW-620; EKVX; Malme-3M; K562; A549; OVCAR-8; SK-MEL-28; UACC-257; SN12C; SK-OV-3; LOX IMVI.
What all share (test): inhibition of tumour cell growth, NCI panel, 48 h

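In this assay, cells in 96-well plates receive the compound at five concentrations for 48 hours. Endpoints are linearly interpolated between the surrounding concentrations. GI50 is the concentration that inhibits growth by half.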 The source made the active and inactive calls. Rule as the data show it: active = GI50 up to about 1.1 µM and inactive = higher. Bounds are passed on as bounds.

For `O=C(O)CC[C@H](NC(=O)c1ccc(-n2nc3ccc(=O)cc-3[nH]c2=O)cc1)C(=O)O`, the GI50 with OVCAR-4, in the test on UACC-62, in the test with HOP-62, with SF-539, in the test with NCI-H23 and with SR was > 100 µM (inactive) throughout. In addition, the GI50 in the test with HCC 2998, in the test with SW-620, with EKVX, in the test on Malme-3M, in the test with K562 and in the test on A549 was > 100 µM (inactive) each time. The GI50 with OVCAR-8, in the test on SK-MEL-28, in the test with UACC-257 and in the test with SN12C was > 100 µM (inactive) each time.

`CC1OC(n2cc(F)c(=O)[nH]c2=O)CCC1=O` (centres undefined): the GI50 was > 100 µM (inactive) in the test with OVCAR-4; > 100 µM (inactive) in the test with UACC-62; 50.8 µM (inactive) in the test on HOP-62; 10.4 µM (inactive) in the test on SF-539; > 100 µM (inactive) in the test with SR; 5.98 µM (inactive) in the test with HCC 2998. In addition, the GI50 in the test on SW-620 was > 100 µM (inactive); in the test on SK-OV-3, > 100 µM (inactive); with Malme-3M it was > 100 µM (inactive); with K562, > 100 µM (inactive); in the test with A549, 46.7 µM (inactive); in the test with OVCAR-8, > 100 µM (inactive). Also, the results for the GI50 in the test on LOX IMVI, in the test on UACC-257 and in the test on SN12C were 88.1 µM (inactive), > 100 µM (inactive) and > 100 µM (inactive), respectively.

As for `COc1cccc(OC)c1/C=N\N1C(=O)c2ccccc2C1=O`, the GI50 with OVCAR-4 is 49 µM (inactive); in the test on UACC-62, 34.6 µM (inactive); with HOP-62 it was > 100 µM (inactive); in the test with SF-539, 24.3 µM (inactive); in the test on NCI-H23, 38.5 µM (inactive); in the test on SR, 32.8 µM (inactive). Also, the GI50 with HCC 2998 was 29.5 µM (inactive); in the test with SW-620, 41.6 µM (inactive); in the test with EKVX, > 100 µM (inactive); with Malme-3M, 60 µM (inactive); in the test on K562, 39.1 µM (inactive); with A549, > 100 µM (inactive). For the same molecule, the GI50 in the test on OVCAR-8 is 29.6 µM (inactive); with LOX IMVI it was 58.5 µM (inactive); in the test on SK-MEL-28, 77.6 µM (inactive); with UACC-257 it was > 100 µM (inactive); in the test on SN12C, 57.1 µM (inactive).

Regarding `COc1ccc(N2C(=O)C3c4[nH]c5ccccc5c4C4CCC(C(C)(C)C)CC4C3C2=O)cc1OC` (centres undefined), the GI50 is 21.9 µM (inactive) with OVCAR-4; 63.4 µM (inactive) in the test on UACC-62; 18 µM (inactive) in the test on HOP-62; 18.6 µM (inactive) with SF-539; 34.6 µM (inactive) in the test with NCI-H23; 18.1 µM (inactive) in the test on SR. For the same molecule, the GI50 in the test on HCC 2998 is 48.8 µM (inactive); with SW-620, 26.7 µM (inactive); in the test with EKVX, 35.8 µM (inactive); with SK-OV-3, 20.4 µM (inactive); in the test with Malme-3M, 38.4 µM (inactive); with K562, 28.2 µM (inactive). For the same molecule, the GI50 is 16.1 µM (inactive) with A549; 18.2 µM (inactive) in the test on OVCAR-8; 71.1 µM (inactive) in the test on SK-MEL-28; 67 µM (inactive) in the test on UACC-257; 23 µM (inactive) with SN12C.

On to `COC(=O)/C(=C/CC(N=C(c1ccccc1)c1ccccc1)C(=O)OC)N=C(c1ccccc1)c1ccccc1` (centres undefined), for which the GI50 in the test with OVCAR-4, in the test on UACC-62, in the test with HOP-62, in the test on NCI-H23, in the test with SR and in the test with HCC 2998 was > 100 µM (inactive) in each case. Also, the GI50 with SW-620 is > 100 µM (inactive); in the test on EKVX, > 100 µM (inactive); with SK-OV-3 it was 39 µM (inactive); with Malme-3M, > 100 µM (inactive); with K562 it was > 100 µM (inactive); in the test with A549, > 100 µM (inactive). In addition, the GI50 in the test on OVCAR-8, with LOX IMVI, in the test with SK-MEL-28, with UACC-257 and with SN12C was > 100 µM (inactive) throughout.

Turning to `CC#CC1C(OC(=O)c2ccccc2)CCCC1(CI)N=[N+]=[N-]` (centres undefined), the GI50 was 60.1 µM (inactive) with OVCAR-4; > 100 µM (inactive) with UACC-62; 94 µM (inactive) in the test with HOP-62; > 100 µM (inactive) in the test with SF-539; 28.3 µM (inactive) in the test with NCI-H23; 17.5 µM (inactive) in the test on SR. In addition, the GI50 was 90.2 µM (inactive) in the test with HCC 2998; > 100 µM (inactive) in the test with SW-620; 55.1 µM (inactive) in the test with EKVX; > 100 µM (inactive) in the test on SK-OV-3; > 100 µM (inactive) in the test with Malme-3M; 28.4 µM (inactive) in the test on K562. Moreover, the GI50 was 58.6 µM (inactive) with A549, 59.7 µM (inactive) in the test on OVCAR-8, 38.2 µM (inactive) in the test with UACC-257 and > 100 µM (inactive) in the test with SN12C.

Consider `OC1(C23CC4CC(CC(C4)C2)C3)CSCC1(O)C12CC3CC(CC(C3)C1)C2` (centres undefined), for which the GI50 was > 100 µM (inactive) in the test on OVCAR-4; 70.6 µM (inactive) in the test with UACC-62; > 100 µM (inactive) in the test with HOP-62; > 100 µM (inactive) with SF-539; > 100 µM (inactive) in the test on NCI-H23; > 100 µM (inactive) in the test with SR. For the same molecule, the GI50 in the test on HCC 2998, with SW-620, with EKVX, in the test with SK-OV-3, in the test with Malme-3M and in the test with K562 was > 100 µM (inactive) each time. Besides, the GI50 with A549, in the test with OVCAR-8, in the test on SK-MEL-28, in the test with UACC-257 and in the test with SN12C was > 100 µM (inactive) throughout.

In the case of `CC1(C)COC2(OC1)C1=NS(=O)(=O)CC13CCC2C3(C)C` (centres undefined), the GI50 with OVCAR-4, with UACC-62, in the test with HOP-62, with SF-539, with NCI-H23 and in the test on SR was > 100 µM (inactive) in each case. For the same molecule, the GI50 in the test on SW-620, in the test with EKVX, with SK-OV-3, with Malme-3M, in the test with K562 and in the test on A549 was > 100 µM (inactive) in each case. The GI50 in the test on OVCAR-8, in the test on LOX IMVI, in the test with SK-MEL-28, in the test on UACC-257 and in the test on SN12C was > 100 µM (inactive) throughout.

For `Cc1ccc2[nH]c3c(C)c4c(c(C)c3c2c1)CN(C)C=C4`, the GI50 is 1.66 µM (inactive) in the test on OVCAR-4; 1.62 µM (inactive) with UACC-62; 0.743 µM (active) in the test on HOP-62; 0.393 µM (active) with SF-539; 0.735 µM (active) with NCI-H23; 1.61 µM (inactive) with SR. The GI50 with HCC 2998 was 1.52 µM (inactive); with SW-620, 0.281 µM (active); in the test with EKVX, 1.17 µM (inactive); in the test with SK-OV-3 it was 0.33 µM (active); in the test on K562, 1.42 µM (inactive); in the test on A549, 0.37 µM (active). Besides, the GI50 is 0.444 µM (active) in the test on OVCAR-8; 3.93 µM (inactive) with LOX IMVI; 1.98 µM (inactive) in the test with SK-MEL-28; 2.53 µM (inactive) in the test on UACC-257; 0.186 µM (active) in the test with SN12C.

(Values after ChEMBL document CHEMBL1201862, “PubChem BioAssay data set” (2004).)
